Patent US12728177B2, “Disinfectant composition with rapid antiviral efficacy” (priority 2015, dated 2026)

Columns and labels:
[1] = 25° C.; cited from earlier work
[2] = tested on: Bacteriophage Phi X174 (ATCC 13706-81); assay: Virucidal infectivity (percent reduction in virus infectivity, E. coli outgrowth with resazurin dye); conditions: 10-minute exposure;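 note: exposed phage diluted into broth, E. coli outgrowth followed 16-24 h at 37 °C by fluorescence rate, unexposed phage set as 100% signal, phage-free as 0%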
Experimental: Bacteriophage Phi X174 (ATCC 13706-81) was added 1:10 (−108 plaque forming units (PFU) per sample) into a solution containing the composition of interest. Following a 10-minute exposure, the sample was transferred 1:10 into Tryptic Soy Broth (TSB). Following 10 minutes in TSB, a second 1:10 dilution was completed into an outgrowth solution for the Phi X174 host (E. coli ATCC 13706) that contained TSB and a resazurin dye. E. coli outgrowth was then monitored at 37° C. for 16-24 hours and the rate of fluorescence development was calculated. The rate observed when Phi X174 was not exposed to any composition represented a 100% Phi X174 signal. The rate observed without Phi X174 present represented a “0% signal.” The rate obtained following Phi X174 exposure to a given composition was compared to the signal obtained with no exposure to calculate the “percent reduction in virus infectivity.”

[3] = secondary agent 2-7 mM + Maleic Acid 3 mM
[4] = secondary agent 2-7 mM + Phosphonc Acid 50-150 mM
[5] = secondary agent 2-7 mM + Sulfosuccinic Acid 10-32 mM

## O=C(O)CC(C(=O)O)S(=O)(=O)O (centres unmarked) [Sulfosuccinic Acid]
[1]
  pka1 (first acid dissociation constant): −1.65
[2]; Sulfosuccinic Acid 10-32 mM, no secondary agent
  reduction in virus infectivity, Primary Antiviral Agent without secondary agent (None): 0-75%

## NC(N)=O [Urea]
[2]; agent alone 7 mM
  % Reduction, Secondary Antiviral Agent Alone: 0%
[2]; agent alone 20 mM
  % Reduction, Secondary Antiviral Agent Alone: 0%
[2]; agent alone 60 mM
  % Reduction, Secondary Antiviral Agent Alone: 0%
[2]; agent alone 180 mM
  % Reduction, Secondary Antiviral Agent Alone: 0%
[2]; secondary agent 3 mM + Maleic Acid 3 mM
  reduction in virus infectivity, in Combination with Maleic Acid (3 mM): 8%
[2]; secondary agent 3 mM + Phosphonc Acid 50-150 mM
  reduction in virus infectivity, in Combination with Phosphonc Acid (50-150 mM): 57%
[2]; secondary agent 3 mM + Sulfosuccinic Acid 10-32 mM
  reduction in virus infectivity, in Combination with Sulfosuccinic Acid (10-32 mM): 1%
[2]; secondary agent 9 mM + Maleic Acid 3 mM
  reduction in virus infectivity, in Combination with Maleic Acid (3 mM): 6%
[2]; secondary agent 9 mM + Phosphonc Acid 50-150 mM
  reduction in virus infectivity, in Combination with Phosphonc Acid (50-150 mM): 71%
[2]; secondary agent 9 mM + Sulfosuccinic Acid 10-32 mM
  reduction in virus infectivity, in Combination with Sulfosuccinic Acid (10-32 mM): 0%
[2]; secondary agent 28 mM + Maleic Acid 3 mM
  reduction in virus infectivity, in Combination with Maleic Acid (3 mM): 1%
[2]; secondary agent 28 mM + Phosphonc Acid 50-150 mM
  reduction in virus infectivity, in Combination with Phosphonc Acid (50-150 mM): 53%
[2]; secondary agent 28 mM + Sulfosuccinic Acid 10-32 mM
  reduction in virus infectivity, in Combination with Sulfosuccinic Acid (10-32 mM): 25%
[2]; secondary agent 85 mM + Maleic Acid 3 mM
  reduction in virus infectivity, in Combination with Maleic Acid (3 mM): 0%
[2]; secondary agent 85 mM + Phosphonc Acid 50-150 mM
  reduction in virus infectivity, in Combination with Phosphonc Acid (50-150 mM): 56%
[2]; secondary agent 85 mM + Sulfosuccinic Acid 10-32 mM
  reduction in virus infectivity, in Combination with Sulfosuccinic Acid (10-32 mM): 0%

## [Cl-].[Cl-].[Zn+2] [Zinc Chloride]
[2]; agent alone 2 mM
  % Reduction, Secondary Antiviral Agent Alone: 5%
[2]; agent alone 6 mM
  % Reduction, Secondary Antiviral Agent Alone: 0%
[2]; agent alone 18 mM
  % Reduction, Secondary Antiviral Agent Alone: 0%
[2]; agent alone 53 mM
  % Reduction, Secondary Antiviral Agent Alone: 0%
[2]; secondary agent 53 mM + Maleic Acid 3 mM
  reduction in virus infectivity, in Combination with Maleic Acid (3 mM): 0%
[2]; secondary agent 53 mM + Phosphonc Acid 50-150 mM
  reduction in virus infectivity, in Combination with Phosphonc Acid (50-150 mM): 88%
[2]; secondary agent 53 mM + Sulfosuccinic Acid 10-32 mM
  reduction in virus infectivity, in Combination with Sulfosuccinic Acid (10-32 mM): 99%
[2]; [3]
  reduction in virus infectivity, in Combination with Maleic Acid (3 mM): 99%
[2]; [4]
  reduction in virus infectivity, in Combination with Phosphonc Acid (50-150 mM): 10%
[2]; [5]
  reduction in virus infectivity, in Combination with Sulfosuccinic Acid (10-32 mM): 99%
[2]; secondary agent 6-13 mM + Maleic Acid 3 mM
  reduction in virus infectivity, in Combination with Maleic Acid (3 mM): 99%
[2]; secondary agent 6-13 mM + Phosphonc Acid 50-150 mM
  reduction in virus infectivity, in Combination with Phosphonc Acid (50-150 mM): 28%
[2]; secondary agent 6-13 mM + Sulfosuccinic Acid 10-32 mM
  reduction in virus infectivity, in Combination with Sulfosuccinic Acid (10-32 mM): 99%
[2]; secondary agent 18-26 mM + Maleic Acid 3 mM
  reduction in virus infectivity, in Combination with Maleic Acid (3 mM): 99%
[2]; secondary agent 18-26 mM + Sulfosuccinic Acid 10-32 mM
  reduction in virus infectivity, in Combination with Sulfosuccinic Acid (10-32 mM): 99%

## [Cl][Fe]([Cl])[Cl] [iron (iii) chloride]
[2]; agent alone 8 mM
  % Reduction, Secondary Antiviral Agent Alone: 3%
[2]; agent alone 17 mM
  % Reduction, Secondary Antiviral Agent Alone: 18%
[2]; agent alone 33 mM
  % Reduction, Secondary Antiviral Agent Alone: 21%
[2]; agent alone 66 mM
  % Reduction, Secondary Antiviral Agent Alone: 32%
[2]; secondary agent 8 mM + Maleic Acid 3 mM
  reduction in virus infectivity, in Combination with Maleic Acid (3 mM): 0%
[2]; secondary agent 8 mM + Sulfosuccinic Acid 10-32 mM
  reduction in virus infectivity, in Combination with Sulfosuccinic Acid (10-32 mM): 99%
[2]; secondary agent 17 mM + Maleic Acid 3 mM
  reduction in virus infectivity, in Combination with Maleic Acid (3 mM): 23%
[2]; secondary agent 17 mM + Sulfosuccinic Acid 10-32 mM
  reduction in virus infectivity, in Combination with Sulfosuccinic Acid (10-32 mM): 99%
[2]; secondary agent 33 mM + Maleic Acid 3 mM
  reduction in virus infectivity, in Combination with Maleic Acid (3 mM): 0%
[2]; secondary agent 33 mM + Sulfosuccinic Acid 10-32 mM
  reduction in virus infectivity, in Combination with Sulfosuccinic Acid (10-32 mM): 99%
[2]; secondary agent 66 mM + Maleic Acid 3 mM
  reduction in virus infectivity, in Combination with Maleic Acid (3 mM): 0%
[2]; secondary agent 66 mM + Sulfosuccinic Acid 10-32 mM
  reduction in virus infectivity, in Combination with Sulfosuccinic Acid (10-32 mM): 99%

## Aluminum chlorohydrate
[2]; agent alone 2 mM
  % Reduction, Secondary Antiviral Agent Alone: 1%
[2]; agent alone 6 mM
  % Reduction, Secondary Antiviral Agent Alone: 3%
[2]; agent alone 18 mM
  % Reduction, Secondary Antiviral Agent Alone: 2%
[2]; agent alone 55 mM
  % Reduction, Secondary Antiviral Agent Alone: 9%
[2]; secondary agent 55 mM + Maleic Acid 3 mM
  reduction in virus infectivity, in Combination with Maleic Acid (3 mM): 99%
[2]; secondary agent 55 mM + Phosphonc Acid 50-150 mM
  reduction in virus infectivity, in Combination with Phosphonc Acid (50-150 mM): 68%
[2]; secondary agent 55 mM + Sulfosuccinic Acid 10-32 mM
  reduction in virus infectivity, in Combination with Sulfosuccinic Acid (10-32 mM): 99%
[2]; [3]
  reduction in virus infectivity, in Combination with Maleic Acid (3 mM): 17%
[2]; [4]
  reduction in virus infectivity, in Combination with Phosphonc Acid (50-150 mM): 43%
[2]; [5]
  reduction in virus infectivity, in Combination with Sulfosuccinic Acid (10-32 mM): 99%
[2]; secondary agent 6-14 mM + Maleic Acid 3 mM
  reduction in virus infectivity, in Combination with Maleic Acid (3 mM): 28%
[2]; secondary agent 6-14 mM + Phosphonc Acid 50-150 mM
  reduction in virus infectivity, in Combination with Phosphonc Acid (50-150 mM): 34%
[2]; secondary agent 6-14 mM + Sulfosuccinic Acid 10-32 mM
  reduction in virus infectivity, in Combination with Sulfosuccinic Acid (10-32 mM): 99%
[2]; secondary agent 18-27 mM + Maleic Acid 3 mM
  reduction in virus infectivity, in Combination with Maleic Acid (3 mM): 9%
[2]; secondary agent 18-27 mM + Phosphonc Acid 50-150 mM
  reduction in virus infectivity, in Combination with Phosphonc Acid (50-150 mM): 29%
[2]; secondary agent 18-27 mM + Sulfosuccinic Acid 10-32 mM
  reduction in virus infectivity, in Combination with Sulfosuccinic Acid (10-32 mM): 99%

## Laureth-9 [Hetoxol LA-9]
[2]; agent alone 6 mM
  % Reduction, Secondary Antiviral Agent Alone: 0%
[2]; agent alone 17 mM
  % Reduction, Secondary Antiviral Agent Alone: 0%
[2]; agent alone 50 mM
  % Reduction, Secondary Antiviral Agent Alone: 0%
[2]; agent alone 150 mM
  % Reduction, Secondary Antiviral Agent Alone: 2%
[2]; secondary agent 0.2 mM + Maleic Acid 3 mM
  reduction in virus infectivity, in Combination with Maleic Acid (3 mM): 9%
[2]; secondary agent 0.2 mM + Phosphonc Acid 50-150 mM
  reduction in virus infectivity, in Combination with Phosphonc Acid (50-150 mM): 57%
[2]; secondary agent 0.2 mM + Sulfosuccinic Acid 10-32 mM
  reduction in virus infectivity, in Combination with Sulfosuccinic Acid (10-32 mM): 5%
[2]; secondary agent 1 mM + Maleic Acid 3 mM
  reduction in virus infectivity, in Combination with Maleic Acid (3 mM): 65%
[2]; secondary agent 1 mM + Phosphonc Acid 50-150 mM
  reduction in virus infectivity, in Combination with Phosphonc Acid (50-150 mM): 62%
[2]; secondary agent 1 mM + Sulfosuccinic Acid 10-32 mM
  reduction in virus infectivity, in Combination with Sulfosuccinic Acid (10-32 mM): 0%
[2]; secondary agent 5 mM + Maleic Acid 3 mM
  reduction in virus infectivity, in Combination with Maleic Acid (3 mM): 0%
[2]; secondary agent 5 mM + Phosphonc Acid 50-150 mM
  reduction in virus infectivity, in Combination with Phosphonc Acid (50-150 mM): 11%
[2]; secondary agent 5 mM + Sulfosuccinic Acid 10-32 mM
  reduction in virus infectivity, in Combination with Sulfosuccinic Acid (10-32 mM): 0%
[2]; secondary agent 27 mM + Maleic Acid 3 mM
  reduction in virus infectivity, in Combination with Maleic Acid (3 mM): 0%
[2]; secondary agent 27 mM + Phosphonc Acid 50-150 mM
  reduction in virus infectivity, in Combination with Phosphonc Acid (50-150 mM): 10%
[2]; secondary agent 27 mM + Sulfosuccinic Acid 10-32 mM
  reduction in virus infectivity, in Combination with Sulfosuccinic Acid (10-32 mM): 0%
